Results as given in the NIST ThermoML archive (doi:10.1021/je200808q).

Experiment: mn = molality of the nth substance listed, in mol/kg
Conditions: Liquid, Taylor dispersion method

[Cl-].[K+] [potassium chloride] + O
Conditions | binary diffusion coefficient [m2/s]
298.15 K, 160 kPa, m1 = 0 | 1.94e-09
298.15 K, 240 kPa, m1 = 1 | 1.89e-09
298.15 K, 290 kPa, m1 = 2.5 | 2.02e-09
298.15 K, 480 kPa, m1 = 4.5 | 2.17e-09
298.15 K, 2290 kPa, m1 = 2.5 | 2.02e-09
298.15 K, 4500 kPa, m1 = 2.5 | 2.04e-09
298.15 K, 10170 kPa, m1 = 1 | 1.91e-09
298.15 K, 14990 kPa, m1 = 0 | 1.94e-09
298.15 K, 24920 kPa, m1 = 2.5 | 2.04e-09
298.15 K, 27060 kPa, m1 = 4.5 | 2.14e-09
298.15 K, 28210 kPa, m1 = 1 | 1.92e-09
298.15 K, 30920 kPa, m1 = 0 | 1.95e-09
298.15 K, 32600 kPa, m1 = 2.5 | 2.05e-09
298.15 K, 37390 kPa, m1 = 2.5 | 2.04e-09
298.15 K, 38630 kPa, m1 = 1 | 1.92e-09
298.15 K, 43800 kPa, m1 = 4.5 | 2.17e-09
298.15 K, 45590 kPa, m1 = 1 | 1.95e-09
298.15 K, 47430 kPa, m1 = 2.5 | 2.04e-09
298.15 K, 48170 kPa, m1 = 0 | 1.95e-09
298.15 K, 59030 kPa, m1 = 1 | 1.96e-09
298.15 K, 62940 kPa, m1 = 0 | 1.97e-09
298.15 K, 64970 kPa, m1 = 2.5 | 2.07e-09
298.15 K, 66020 kPa, m1 = 4.5 | 2.18e-09
298.15 K, 66170 kPa, m1 = 2.5 | 2.08e-09
298.15 K, 67070 kPa, m1 = 1 | 1.98e-09
298.15 K, 67630 kPa, m1 = 2.5 | 2.08e-09
323.15 K, 500 kPa, m1 = 4.5 | 3.34e-09
323.15 K, 580 kPa, m1 = 2.5 | 3.15e-09
323.15 K, 610 kPa, m1 = 1 | 3.03e-09
323.15 K, 640 kPa, m1 = 0 | 3.02e-09
323.15 K, 3950 kPa, m1 = 4.5 | 3.32e-09
323.15 K, 15300 kPa, m1 = 1 | 3.06e-09
323.15 K, 15460 kPa, m1 = 0 | 3.02e-09
323.15 K, 31370 kPa, m1 = 4.5 | 3.35e-09
323.15 K, 33580 kPa, m1 = 0 | 3.08e-09
323.15 K, 40890 kPa, m1 = 2.5 | 3.12e-09
323.15 K, 43400 kPa, m1 = 1 | 3.08e-09
323.15 K, 45210 kPa, m1 = 2.5 | 3.18e-09
323.15 K, 47480 kPa, m1 = 2.5 | 3.17e-09
323.15 K, 49570 kPa, m1 = 4.5 | 3.29e-09
323.15 K, 52060 kPa, m1 = 1 | 3.1e-09
323.15 K, 60490 kPa, m1 = 2.5 | 3.12e-09
323.15 K, 62690 kPa, m1 = 4.5 | 3.35e-09
323.15 K, 64860 kPa, m1 = 2.5 | 3.15e-09
323.15 K, 68560 kPa, m1 = 0 | 3.09e-09
323.15 K, 68970 kPa, m1 = 1 | 3.1e-09
348.15 K, 650 kPa, m1 = 0 | 4.48e-09
348.15 K, 660 kPa, m1 = 1 | 4.23e-09
348.15 K, 700 kPa, m1 = 2.5 | 4.52e-09
348.15 K, 730 kPa, m1 = 4.5 | 4.65e-09
348.15 K, 12830 kPa, m1 = 4.5 | 4.59e-09
348.15 K, 15720 kPa, m1 = 0 | 4.49e-09
348.15 K, 18050 kPa, m1 = 2.5 | 4.55e-09
348.15 K, 25820 kPa, m1 = 1 | 4.25e-09
348.15 K, 29270 kPa, m1 = 0 | 4.44e-09
348.15 K, 29960 kPa, m1 = 2.5 | 4.57e-09
348.15 K, 31120 kPa, m1 = 1 | 4.26e-09
348.15 K, 32970 kPa, m1 = 4.5 | 4.62e-09
348.15 K, 35870 kPa, m1 = 1 | 4.24e-09
348.15 K, 39760 kPa, m1 = 1 | 4.23e-09
348.15 K, 41210 kPa, m1 = 1 | 4.25e-09
348.15 K, 41980 kPa, m1 = 1 | 4.25e-09
348.15 K, 45150 kPa, m1 = 2.5 | 4.58e-09
348.15 K, 45330 kPa, m1 = 1 | 4.26e-09
348.15 K, 46780 kPa, m1 = 0 | 4.49e-09
348.15 K, 62420 kPa, m1 = 1 | 4.24e-09
348.15 K, 64020 kPa, m1 = 1 | 4.25e-09
348.15 K, 65910 kPa, m1 = 4.5 | 4.63e-09
348.15 K, 66700 kPa, m1 = 0 | 4.52e-09
348.15 K, 67090 kPa, m1 = 1 | 4.25e-09
348.15 K, 68900 kPa, m1 = 2.5 | 4.59e-09
373.15 K, 740 kPa, m1 = 4.5 | 6.25e-09
373.15 K, 820 kPa, m1 = 0 | 6.11e-09
373.15 K, 820 kPa, m1 = 1 | 5.94e-09
373.15 K, 940 kPa, m1 = 2.5 | 5.92e-09
373.15 K, 17140 kPa, m1 = 2.5 | 5.92e-09
373.15 K, 17780 kPa, m1 = 4.5 | 6.22e-09
373.15 K, 23410 kPa, m1 = 1 | 5.93e-09
373.15 K, 24180 kPa, m1 = 0 | 6.14e-09
373.15 K, 24360 kPa, m1 = 2.5 | 5.94e-09
373.15 K, 31320 kPa, m1 = 2.5 | 5.89e-09
373.15 K, 41280 kPa, m1 = 4.5 | 6.24e-09
373.15 K, 42090 kPa, m1 = 1 | 5.94e-09
373.15 K, 43130 kPa, m1 = 0 | 6.11e-09
373.15 K, 47550 kPa, m1 = 2.5 | 5.98e-09
373.15 K, 47900 kPa, m1 = 4.5 | 6.21e-09
373.15 K, 54290 kPa, m1 = 4.5 | 6.24e-09
373.15 K, 54410 kPa, m1 = 4.5 | 6.24e-09
373.15 K, 57260 kPa, m1 = 2.5 | 5.86e-09
373.15 K, 59590 kPa, m1 = 2.5 | 5.96e-09
373.15 K, 63050 kPa, m1 = 2.5 | 5.96e-09
373.15 K, 64210 kPa, m1 = 1 | 5.97e-09
373.15 K, 64280 kPa, m1 = 0 | 6.18e-09
373.15 K, 65700 kPa, m1 = 4.5 | 6.27e-09
423.15 K, 3080 kPa, m1 = 0 | 1.03e-08
423.15 K, 3410 kPa, m1 = 1 | 9.43e-09
423.15 K, 4440 kPa, m1 = 2.5 | 9.69e-09
423.15 K, 13020 kPa, m1 = 4.5 | 9.27e-09
423.15 K, 15130 kPa, m1 = 1 | 9.45e-09
423.15 K, 15180 kPa, m1 = 2.5 | 9.67e-09
423.15 K, 15260 kPa, m1 = 2.5 | 9.68e-09
423.15 K, 18510 kPa, m1 = 0 | 1.03e-08
423.15 K, 33580 kPa, m1 = 0 | 1.03e-08
423.15 K, 34630 kPa, m1 = 2.5 | 9.7e-09
423.15 K, 34720 kPa, m1 = 1 | 9.45e-09
423.15 K, 40540 kPa, m1 = 4.5 | 9.29e-09
423.15 K, 56030 kPa, m1 = 2.5 | 9.7e-09
423.15 K, 61620 kPa, m1 = 1 | 9.48e-09
423.15 K, 63300 kPa, m1 = 0 | 1.03e-08
423.15 K, 65050 kPa, m1 = 2.5 | 9.72e-09
423.15 K, 65640 kPa, m1 = 1 | 9.49e-09
423.15 K, 68930 kPa, m1 = 4.5 | 9.3e-09
